{
  "source": "paper PMC3591093",
  "about": "“De novo modeling of the F420-reducing [NiFe]-hydrogenase from a methanogenic archaeon by cryo-electron microscopy” (eLife, 2013)",
  "key": {"[1]": {"target": "T1, Frh complex (FrhABG), F420-reducing [NiFe]-hydrogenase (Methanothermobacter marburgensis, UniProt D9PYF6)", "T1 construct": "gene frhB; FrhA C-terminus after His386 removed in maturation; FrhG most probably starts at Val39 of the 275-residue annotation; FrhA 45, FrhG 26, FrhB 31 kDa; with Coenzyme F420 hydrogenase subunit alpha; Coenzyme F420 hydrogenase subunit gamma", "T1 sequence (D9PYF6 1-281)": "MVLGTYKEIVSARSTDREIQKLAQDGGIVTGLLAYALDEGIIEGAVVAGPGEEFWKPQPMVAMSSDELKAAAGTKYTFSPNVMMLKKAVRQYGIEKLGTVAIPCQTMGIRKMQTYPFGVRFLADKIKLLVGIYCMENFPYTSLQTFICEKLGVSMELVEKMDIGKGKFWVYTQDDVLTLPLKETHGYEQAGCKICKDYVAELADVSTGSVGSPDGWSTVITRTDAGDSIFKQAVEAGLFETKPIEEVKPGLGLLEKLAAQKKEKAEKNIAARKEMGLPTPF", "T1 sequence (D9PYF9 1-386 partner)": "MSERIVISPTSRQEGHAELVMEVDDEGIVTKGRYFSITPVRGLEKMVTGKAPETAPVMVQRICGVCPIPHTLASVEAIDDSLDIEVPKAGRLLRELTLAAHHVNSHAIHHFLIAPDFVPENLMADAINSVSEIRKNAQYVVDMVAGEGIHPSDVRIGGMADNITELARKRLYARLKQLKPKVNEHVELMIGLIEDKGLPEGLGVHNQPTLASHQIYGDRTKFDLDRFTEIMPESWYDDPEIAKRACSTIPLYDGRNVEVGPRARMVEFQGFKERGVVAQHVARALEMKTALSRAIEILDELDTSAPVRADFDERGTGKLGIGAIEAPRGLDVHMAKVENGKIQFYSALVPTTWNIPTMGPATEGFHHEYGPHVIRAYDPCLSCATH", "T1 sequence (D9PYF7 40-275 partner)": "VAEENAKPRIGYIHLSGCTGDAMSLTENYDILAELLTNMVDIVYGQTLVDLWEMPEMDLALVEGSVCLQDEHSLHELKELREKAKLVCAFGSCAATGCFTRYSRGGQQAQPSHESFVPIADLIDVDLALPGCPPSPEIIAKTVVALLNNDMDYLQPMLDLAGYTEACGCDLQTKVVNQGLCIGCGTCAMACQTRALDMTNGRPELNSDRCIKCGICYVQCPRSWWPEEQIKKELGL", "experiment": "cryo-EM structure", "assay_type": "binding", "conditions": "25 uM FAD in purification buffers; site in FrhB near the [4Fe-4S] cluster; ribose and ribitol density missing"}, "[2]": {"target": "T1, Frh complex (FrhABG), F420-reducing [NiFe]-hydrogenase", "experiment": "cryo-EM structure (map with versus without F420)", "assay_type": "binding", "conditions": "0.5, 1.0 or 10 mM F420, oxygen-free; site in FrhB next to FAD isoalloxazine; only the isoalloxazine-like ring modelled, weak density"}},
  "data": [
    {"smiles": "Cc1cc2nc3c(=O)[nH]c(=O)nc-3n(C[C@H](O)[C@H](O)[C@H](O)COP(=O)(O)OP(=O)(O)OC[C@H]3O[C@@H](n4cnc5c(N)ncnc54)[C@H](O)[C@@H]3O)c2cc1C", "note": "[FAD]", "values": [
      {"measurement": "cryo-EM structure", "setting": "[1]", "result": "could be interpreted as the isoalloxazine ring of the FAD cofactor"}
    ]},
    {"smiles": "C[C@H](OP(=O)(O)OC[C@@H](O)[C@@H](O)[C@@H](O)Cn1c2nc(=O)[nH]c(=O)c-2cc2ccc(O)cc21)C(=O)N[C@@H](CCC(=O)N[C@@H](CCC(=O)O)C(=O)O)C(=O)O", "note": "[F420]", "values": [
      {"measurement": "cryo-EM structure (map with versus without F420)", "setting": "[2]", "result": "We conclude that it represents the isoalloxazine ring of the F420 substrate."}
    ]}
  ]
}
